In patent US20060105375A1, “Bioretrosynthetic methods for preparing products and compositions related thereto” (priority 2004, published 2006):
Read-outs that look alike come from different tables or passages of the source.

Experiments:
[1] = system: E. coli BL21(DE3) expressing mutant HPRT; assay: Time course sensitivity determination by triazole dilution assay of HPRT mutant clones; format: cell-based; details: growth-impaired HPRT mutant clones, FIG. 22A
Excerpt: FIG. 22A is a graph of time course of sensitivity of clones identified by triazole sensitivity screening methodology. FIG. 22B is a SDS-PAGE gel of expression and nickel affinity purification of 8B3 HPRT. Left is cell-free extract and right is purified 8B3.
It is widely appreciated that ribavirin is a broad-spectrum antiviral nucleoside analog. […] This would form the basis of a ready-made survival based bioassay for ribavirin-1-phosphate biosynthesis directed evolution (FIG. 20). In this selection scheme an E. coli library containing variants of the purine salvage enzyme hypoxanthine phosphoribosyltransferase (HPRT) is replicated into M9 media supplemented with 1,2,4-triazole carboxamide 7 “protoxin.” Active enzymes react triazole with endogenous PRPP 8 to form ribavirin monophosphate 5, an IMPDH poison resulting in growth inhibition. […] Subsequently, a library of mutagenized HPRT in E. coli was evaluated. […]
(§1) A small mutant library of ca. 1000 members was replica plated into 96-well plates containing minimal medium (M9), kanamycin and 200 μM synthetically prepared 1,2,4-triazole carboxamide (2), a concentration found to be non-lethal to transformed E. coli BL21(DE3) under these conditions. […] The mutant and wild type HPRT enzymes were expressed as His×6 tagged proteins and purified to homogeneity (FIG. 22B).

[2] = system: transformed E. coli BL21(DE3); assay: Growth of transformed E. coli in minimal medium (M9) with 1,2,4-triazole carboxamide protoxin; format: cell-based; details: 200 μM, kanamycin, 96-well plates
Excerpt: It is widely appreciated that ribavirin is a broad-spectrum antiviral nucleoside analog. […] This would form the basis of a ready-made survival based bioassay for ribavirin-1-phosphate biosynthesis directed evolution (FIG. 20). In this selection scheme an E. coli library containing variants of the purine salvage enzyme hypoxanthine phosphoribosyltransferase (HPRT) is replicated into M9 media supplemented with 1,2,4-triazole carboxamide 7 “protoxin.” Active enzymes react triazole with endogenous PRPP 8 to form ribavirin monophosphate 5, an IMPDH poison resulting in growth inhibition. Negative controls with synthetically prepared 1,2,4-triazole carboxamide 7 and complementation experiments with guanosine monophosphate confirmed the validity of this method. Subsequently, a library of mutagenized HPRT in E. coli was evaluated. The assay can be improved by adding nutrients to the medium.
as §1, with “conditions. Plates were grown for 5 days at 37° C. and cell growth was visualized by staining with tetrazolium blue.” for “conditions.”

[3] = target: T1, PNP (purine nucleoside phosphorylase) (Escherichia coli, UniProt P0ABP8); assay: Phosphorolysis of inosine vs. dideoxyinosine by PNP (basal activity, Lineweaver-Burke plot); format: biochemical, E. coli; details: apparent Km values
T1 sequence (P0ABP8 1-239): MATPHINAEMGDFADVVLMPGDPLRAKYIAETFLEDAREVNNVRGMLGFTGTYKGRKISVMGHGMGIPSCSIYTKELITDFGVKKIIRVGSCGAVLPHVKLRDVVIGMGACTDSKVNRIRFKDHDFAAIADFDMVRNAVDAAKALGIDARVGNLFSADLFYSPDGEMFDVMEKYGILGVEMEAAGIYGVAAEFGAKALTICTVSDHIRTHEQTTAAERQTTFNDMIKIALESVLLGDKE

[4] = target: inosine monophosphate dehydrogenase (IMPDH) (Escherichia coli, UniProt P0ADG7); details: cited from earlier work
[5] = substrate: OC[C@H]1O[C@@H](n2cnc3c(O)ncnc32)[C@H](O)[C@@H]1O; assay: Phosphorolysis of inosine vs. dideoxyinosine by PNP (basal activity, Lineweaver-Burke plot); format: biochemical, E. coli; details: other: substrate of PNP; reverse reaction (phosphorolysis, release of hypoxanthine) monitored with colorimetric assay of FIG. 7

Sequence of inosine monophosphate dehydrogenase (IMPDH) (P0ADG7 whole entry): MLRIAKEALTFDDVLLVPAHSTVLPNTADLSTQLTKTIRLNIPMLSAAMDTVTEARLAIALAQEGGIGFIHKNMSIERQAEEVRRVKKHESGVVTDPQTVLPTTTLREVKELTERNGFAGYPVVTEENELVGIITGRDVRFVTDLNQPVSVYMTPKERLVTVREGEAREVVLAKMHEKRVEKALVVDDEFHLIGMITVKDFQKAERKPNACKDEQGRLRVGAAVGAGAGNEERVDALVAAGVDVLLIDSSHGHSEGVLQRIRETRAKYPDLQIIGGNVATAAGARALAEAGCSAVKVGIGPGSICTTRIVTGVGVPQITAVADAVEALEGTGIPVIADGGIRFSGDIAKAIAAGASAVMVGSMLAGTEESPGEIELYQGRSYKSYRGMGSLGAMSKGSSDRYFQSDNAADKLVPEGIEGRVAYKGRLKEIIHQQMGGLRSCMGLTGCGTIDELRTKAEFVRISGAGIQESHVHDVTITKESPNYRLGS

## NC(=O)c1nc[nH]n1 [1,2,4-triazole carboxamide]
[1]
  susceptibility of HPRT mutants to triazole in vivo (versus wild type): > 2 fold
[2]
  lethality to transformed E. coli BL21(DE3): non-lethal

## O=c1[nH]cnc2c1ncn2[C@H]1CC[C@@H](CO)O1 [ddI, dideoxyinosine]
[3]
  Km of ddI relative to that of inosine: > 100 times

## NC(=O)c1ncn([C@@H]2O[C@H](COP(=O)(O)O)[C@@H](O)[C@H]2O)n1 [ribavirin-1-phosphate 5, ribavirin monophosphate]
[4]
  inhibition of IMPDH: potent competitive inhibitor
[4]; listed as Ribavirin monophosphate
  inhibition of IMPDH: competitive inhibitor

B1: PNP (purine nucleoside phosphorylase) (Escherichia coli K-12) (protein)
chain: T1 sequence (P0ABP8 1-239)
[5]
  Km: 56 µM
